Like-named read-outs stand apart in the source and are kept apart here.
Experiments:
[1] = in vivo; cited from earlier work
proteasome CT-L activity = details: following the first dose for each week of dosing; cited from earlier work
proteasome subunits = details: summary table; cited from earlier work
[2] = human, in vivo, iv; cited from earlier work
β1 = test system: β1; set-up: method as in PMID 20110052; details: whole blood, doses as high as 45 mg/m2; cited from earlier work
[3] = in vivo; cited from earlier work; remark: listed apart in the source
β2 = test system: β2; set-up: method as in PMID 20110052; details: whole blood, doses as high as 45 mg/m2; cited from earlier work
[4] = test system: β5 subunit of the constitutive proteasome; details: patients, doses ≥15 mg/m2; cited from earlier work
[5] = test system: LMP7 subunit of the immunoproteasome; details: patients, doses ≥15 mg/m2; cited from earlier work
[6] = set-up: method as in PMID 28428366; details: human hepatocytes, quantified with synthesized standards; cited from earlier work
[7] = summary table; cited from earlier work
[8] = summary table; cited from earlier work; remark: listed apart in the source
proteasome [9] = test system: proteasome; set-up: method as in PMID 31142508; details: at MTD, 4 h post-dose; cited from earlier work
[10] = single agent, cited from earlier work
[11] = set-up: method as in PMID 28428366; details: pooled HLMs, cited from earlier work
[12] = set-up: method as in PMID 19348473; details: dogs; cited from earlier work
[13] = set-up: method as in PMID 19348473; details: mice; cited from earlier work
[14] = set-up: method as in PMID 19348473; details: rats; cited from earlier work
proteasome [15] = test system: proteasome; set-up: method as in PMID 30117017; details: whole blood, IV administration; cited from earlier work
CYP1A2 = details: at higher concentrations, recombinant CYP microsomes; cited from earlier work
[16] = test system: trypsin-like activity of the 20S proteasome; details: relative to β5 and LMP7; cited from earlier work
[17] = patients, cited from earlier work
CYP3A4 = details: at higher concentrations, recombinant CYP microsomes; cited from earlier work
[18] = set-up: method as in PMID 30128949; details: AUC0–816h time-proportional pooled plasma, single 4.1-mg oral dose [14C]-ixazomib, four patients; cited from earlier work
CYP2B6 = details: at higher concentrations, recombinant CYP microsomes; cited from earlier work
[19] = test system: caspase-like activity of the 20S proteasome; details: relative to β5 and LMP7; cited from earlier work
[20] = KZR-616 and metabolites in human plasma of SLE patients; assay type: in vivo; details: KZR-616 75 mg
Protocol: Following repeat-dose SC administration, there was no apparent accumulation of immunoproteasome inhibition, although cumulative constitutive proteasome inhibition in whole blood was observed, likely due to the irreversible mechanism of KZR-616 inhibition and the inability of enucleated red blood cells (the major cellular source of constitutive proteasome) to produce new proteasomes. […] As in carfilzomib, and oprozomib, KZR-616 was not stable when incubated in HLMs in the absence of NADPH, indicating non-CYP enzymes were involved in its clearance. […] In pooled plasma samples from 4 patients with systemic lupus erythematous (SLE) receiving a KZR-616 dose of 75 mg, the diol was the major metabolite, and other metabolites from oxidation, hydrolysis + dehydrogenation, oxidation + dehydrogenation double oxidation were less than 1% of the total peak area of all components (Table 2).

CYP450 isozyme 2C9 = details: human liver microsomes (~7 µg/mL); cited from earlier work
CYP450 isozyme 3A4 = details: human liver microsomes (~7 µg/mL); cited from earlier work
CYP450 isozyme 2C19 = details: human liver microsomes (~7 µg/mL); cited from earlier work
CYP450 isozyme 1A2 = details: human liver microsomes (~7 µg/mL); cited from earlier work
[21] = cited from earlier work
CYP450 isozyme 2D6 = details: human liver microsomes (~7 µg/mL); cited from earlier work
[22] = Bortezomib plasma pharmacokinetics in patients; assay type: in vivo, human; details: CYP IC50 vs Cmax at 1.3 mg/m2
Protocol: The relationship between plasma concentration and proteasome inhibition was assessed at 1, 6, and 24 h over a 24-hour period.

20S proteasome = details: cited from earlier work; for inhibition of 20S proteasome activity: patients, single agent, after 1-h treatment
LMP7 = test system: LMP7; set-up: method as in PMID 30380863; details: mouse arthritis model, active dose; cited from earlier work
[23] = set-up: method as in PMID 34234005; details: absence of NADPH; cited from earlier work
[24] = PK of KZR-616 in two drug product formulations; assay type: in vivo; details: 10% (w/v) PS-80 vs 2% (w/v) trehalose formulation
Protocol: (§1) To further evaluate the role of epoxide hydrolase in the metabolism of KZR-616, two analogs were selected for PK and PD studies in cynomolgus monkey to compare with KZR-616. […] Following single subcutaneous (SC) administration to monkeys at 3 mg/kg of these 3 compounds AUC values were the highest with KZR-59240, followed by KZR-616 and KZR-59177. The PK of both parent and diol for each compound were consistent with the stability results in MLM in the absence of NADPH, in which the CYP enzymes were not activated (Table 3), and, as predicted, the diol derivatives were determined to be the major metabolites for all compounds. The PK and PD of KZR-616 was assessed using 2 different drug product formulations, one containing 10% (w/v) PS-80, and the other 2% (w/v) trehalose.

[25] = healthy volunteers, SC; cited from earlier work
LMP2 = test system: LMP2; set-up: method as in PMID 30380863; details: mouse arthritis model, active dose; cited from earlier work
[26] = PK of KZR-616 and analogs after single SC dose in monkeys; details: cynomolgus monkey, in vivo, single SC dose 3 mg/kg
Protocol: as §1

For `CC(C)C[C@H](NC(=O)[C@H](CCc1ccccc1)NC(=O)CN1CCOCC1)C(=O)N[C@@H](Cc1ccccc1)C(=O)N[C@@H](CC(C)C)C(=O)[C@@]1(C)CO1` [Carfilzomib], the dose excreted intact [1] is listed as “less than 1%”, the “time proteasome inhibition was maintained” value (proteasome CT-L activity) is listed as ≥ 48 h and the “Subunit Inhibition” value (proteasome subunits) is listed as “ß5 and LMP7”. For the same molecule, the t1/2 [2] was < 0.5 h, the “inhibition of β1” value (β1) was “Less than 18%” and the “rates of peripheral neuropathy lower than with bortezomib” value [3] was > 60%. The “inhibition of β2” value (β2) was “Less than 18%”, the “average inhibition of β5” value [4] was “greater than 83%” and the “average inhibition of LMP7” value [5] was “greater than 83%”.

In the case of `COC[C@H](NC(=O)c1cnc(C)s1)C(=O)N[C@@H](COC)C(=O)N[C@@H](Cc1ccccc1)C(=O)[C@@]1(C)CO1` [Oprozomib], the “percent of total oprozomib recovered as component” value (from here on “percent”) [6] is given as 20%, the “Subunit Inhibition” value (proteasome subunits) is given as “ß5 and LMP7” and the “Metabolic Pathwas” value [7] is given as “Microsomal epoxide hydrolase peptidases, CYPs”. For the same molecule, the Absorption [8] was “fast”, the Clearance [8] was “fast” and the proteasome inhibition (proteasome [9]) was ≥ 70%. For the same molecule, the “maximum tolerated dose (MTD)” value ([10]; first 2 days every 7 days of a 14-day cycle (2/7 schedule)) was 300 mg/day, the “maximum tolerated dose (MTD)” value ([10]; first 5 days of a 14-day cycle (5/14 schedule)) was 240 mg/day and the intrinsic clearance ([11]; absence of NADPH) was 20.2 ± 1.8 µL/min/mg protein. The intrinsic clearance ([11]; presence of NADPH) was 70.7 ± 2.9 µL/min/mg protein, the “increase of intrinsic clearance by NADPH” value ([11]; presence vs absence of NADPH) was 3.5 fold and the “oral bioavailability F%” value [12] was 39%. For the same molecule, the “oral bioavailability F%” value [13] was 17% and the “oral bioavailability F%” value [14] was 21%.

In the case of `CC(C)C[C@H](NC(=O)CNC(=O)c1cc(Cl)ccc1Cl)B(O)O` [Ixazomib], the “time to recovery of proteasome inhibition” value (proteasome [15]) is listed as ≤ 24 h, the contribution to metabolism (CYP1A2) is listed as 26% and the “Subunit Inhibition” value (proteasome subunits) is listed as “ß5 and LMP7”. For the same molecule, the “Metabolic Pathwas” value [7] was “Hydrolases, CYPs”, the “less potency than for chymotrypsin-like activities” value [16] was 1000 fold and the Absorption [8] was “fast”. For the same molecule, the Clearance [8] was “fast”, the Tmax ([17]; oral) was “approximately 1 h” and the apparent clearance [17] was ~ 1.9 L/h. For the same molecule, the contribution to metabolism (CYP3A4) was 42%, the “% of plasma TRA” value [18] was 54.2% and the contribution to metabolism (CYP2B6) was 16%. For the same molecule, the “less potency than for chymotrypsin-like activities” value [19] was 10 fold.

In the case of `CC(C)C[C@@H](O)NC(=O)[C@H](Cc1ccccc1)NC(=O)c1cnccn1` [M1], the “% of plasma TRA” value [18] is given as 18.9%.

For `COC[C@H](NC(=O)c1cnc(C)s1)C(=O)N[C@@H](COC)C(=O)N[C@@H](Cc1ccccc1)C(=O)[C@](C)(O)CO` [PR-176], the “percent” value [6] is given as ~ 55%.

For `COc1ccc(C(O)C(NC(=O)C(C)NC(=O)CN2CCOCC2)C(=O)NC(CC2=CCCC2)C(=O)C(C)(O)CO)cc1` (stereo not shown) [KZR-59587], the “Component in Plasma as % of Total XIC (Extracted Ion Chromatogram) Area” value (“Component in Plasma as % of Total XIC” below) ([20]; Subject 110-004, SLE patient) was 33.8%, the “Component in Plasma as % of Total XIC” value ([20]; Subject 112-021, SLE patient) was 45.8% and the “Component in Plasma as % of Total XIC” value ([20]; Subject 113-002, SLE patient) was 47.9%. For the same molecule, the “Component in Plasma as % of Total XIC” value ([20]; Subject 116-012, SLE patient) was 43.8%.

In the case of `CC(C)C[C@H](O)NC(=O)[C@H](Cc1ccccc1)NC(=O)c1cnccn1` [M2], the “% of plasma TRA” value [18] is given as 7.91%.

For `CC(C)C[C@H](NC(=O)[C@H](Cc1ccccc1)NC(=O)c1cnccn1)B(O)O` [Bortezomib], the IC50 (CYP450 isozyme 2C9) is listed as > 18 µM, the IC50 (CYP450 isozyme 3A4) is listed as > 18 µM and the “Subunit Inhibition” value (proteasome subunits) is listed as “ß5 and LMP7”. The “Metabolic Pathwas” value [7] was “Hydrolases, CYPs”, the IC50 (CYP450 isozyme 2C19) was > 18 µM and the Absorption [8] was “fast”. For the same molecule, the Clearance [8] was “fast”, the IC50 (CYP450 isozyme 1A2) was > 18 µM and the “variation of plasma concentration” value ([21]; 1 h post-dose) was ~ 800%. For the same molecule, the “increase in bortezomib exposure” value ([21]; DDI, plus ketoconazole (CYP3A4 inhibitor), patients) was 1.4 fold, the IC50 (CYP450 isozyme 2D6) was > 18 µM and the “CYP450 IC50 values higher than Cmax” value [22] was 60 fold. For the same molecule, the “variation of proteasome inhibition” value (20S proteasome; 1 h post-dose) was ~ 70%, the “recovery of proteasome activity” value (20S proteasome; 12 h after administration) was 50% and the “Time to Emax (median)” value (20S proteasome; IV administration) was 5 min. For the same molecule, the “mean maximum inhibition (Emax)” value (20S proteasome; IV administration) was “approximately 69%”, the “Time to Emax (median)” value (20S proteasome; SC administration) was 120 min and the “time to complete recovery of proteasome activity” value (20S proteasome; after administration) was ≤ 72 h. The “time to full recovery of proteasome activity” value (20S proteasome; after dosing) was 36 h, the “time by which recovery of proteasome activity was observed” value (20S proteasome; assessed at 1, 6 and 24 h) was ≤ 24 h and the “inhibition of 20S proteasome activity” value (20S proteasome; 0.40 mg/m2) was 36%. For the same molecule, the “inhibition of 20S proteasome activity” value (20S proteasome; 1.04 mg/m2) was 60%, the “inhibition of 20S proteasome activity” value (20S proteasome; 1.20 mg/m2) was 65% and the “inhibition of 20S proteasome activity” value (20S proteasome; 1.38 mg/m2) was 74%.

For `COc1ccc([C@@H](O)[C@H](NC(=O)[C@H](C)NC(=O)CN2CCOCC2)C(=O)N[C@@H](CC2=CCCC2)C(=O)[C@@]2(C)CO2)cc1` [KZR-616, (2S,3R)-N-((S)-3-(Cyclopent-1-en-1-yl)-1-((R)-2-methyloxiran-2-yl)-1oxopropan-2-yl)-3-hydroxy-3-(4-methoxyphenyl)-2-((S)-2-(2morpholinoacetamido)propanamido)propenamide], the LMP7 inhibition (LMP7) is given as “complete”, the “Component in Plasma as % of Total XIC” value ([20]; Subject 110-004, SLE patient) is given as 61.2% and the “Component in Plasma as % of Total XIC” value ([20]; Subject 112-021, SLE patient) is given as 49.0%. For the same molecule, the “Component in Plasma as % of Total XIC” value ([20]; Subject 113-002, SLE patient) was 46.5%, the “Component in Plasma as % of Total XIC” value ([20]; Subject 116-012, SLE patient) was 51.8% and the “stability in HLMs” value [23] was “not stable”. For the same molecule, the “Subunit Inhibition” value (proteasome subunits) was “LMP2 and LMP7”, the “Metabolic Pathwas” value [7] was “Microsomal epoxide hydrolase” and the Absorption [8] was “fast”. For the same molecule, the Clearance [8] was “fast”, the “difference in Cmax between formulations” value [24] was 2 fold and the “total exposure (AUC) in both formulations” value [24] was “equivalent”. The Tmax [25] was < 1 h, the t1/2 [25] was < 4 h and the LMP2 inhibition (LMP2) was ~ 40%. It also gave an AUC(0-inf) [26] of 740 ± 188 ng·h/mL, a Cmax [26] of 441 ± 114 ng/mL and a Tmax [26] of 0.333 ± 0.136 h. The half-life [26] was 1.05 ± 0.13 h.

In the case of `C[C@@](O)(CO)C(=O)[C@@H](N)Cc1ccccc1` [diol of PR-025], the “percent” value [6] is given as ~ 7%.

For `NC(=O)[C@H](Cc1ccccc1)NC(=O)c1cnccn1` [M3], the “% of plasma TRA” value [18] is listed as 10.6%.
